Like-named read-outs stand apart in the source and are kept apart here. Where a SMILES comes first, the peptide text is derived from it. [ ]: non-standard residue; d: D form. Phe(4-F) = N[C@@H](Cc1ccc(F)cc1)C(=O)O; 1Nal = N[C@@H](Cc1cccc2ccccc12)C(=O)O; d(hPhe) = N[C@H](CCc1ccccc1)C(=O)O; Cha = N[C@@H](CC1CCCCC1)C(=O)O

Here are results for 13 compounds from patent publication US5811512A, “Non-peptide peptidomimetics and related cyclic hexapeptides” (The Trustees of the University of Pennsylvania, priority 1996, dated 1998).

For assay [1], the system named is somatostatin receptors of AtT-20 cells. As to conditions: read-out: IC50 for binding somatostatin receptors of AtT-20 cells, cited from earlier work.
Assay [2] addresses T1, human neurokinin-1 receptor (NK1R) (Homo sapiens, UniProt P25103).
T1 construct: the cDNA for the human NK1R was cloned into the expression vector pCDM9; expressed in transfected cells; host or cells: COS cells (transient, electroporation, vector pCDM9)
The experiment in a line: Substance P receptor binding: 125I-substance P displacement from human NK1R expressed in COS cells. Conditions: for IC50: 125I-SP, COS cells expressing human NK1R, read-out: IC50 (concentration required to inhibit the binding of substance P to the human neurokinin-1 receptor by 50%). Here is the method: The affinity of a variety of compounds for the substance P receptor was determined employing the following procedure.
A. Receptor Expression in COS
To express the cloned human neurokinin-1 receptor (NK1R) transiently in COS, the cDNA for the human NK1R was cloned into the expression vector pCDM9 which was derived from pCDM8 (Invitrogen) by inserting the ampicillin resistance gene (nucleotide 1973 to 2964 from Bluescript SK+) into the Sac II site. Transfection of 20 μg of the plasmid DNA into 10 million COS cells was achieved by electroporation in 800 μl of the transfection buffer ([…], 1.2 mM MgCl2, 2.4 mM K2 HPO4, 0.6 mM KH2 PO4, 10 nM glucose, 10 mM HEPES pH 7.4) at 260V and 950 μF using the IBI Genezapper (IBI, New Haven, Conn.). The cells were incubated in 10% fetal calf serum, 2 mM glutamine, 100 U/ml penicillin-streptomycin, and 90% DMEM media (Gibco, Grand Island, N.Y.) in 5% CO2 at 37° C. for three days before the binding assay.
B. Assay Protocol using COS
The binding assay of human NK1R expressed in COS cells is based on the use of ^125 I-substance P (^125 I-SP, from DuPont, Boston, Mass.) as a radioactively labeled ligand which competes with unlabeled substance P or any other ligand for binding to the human NK1R. Monolayer cell cultures of COS were dissociated by the non-enzymatic solution (Specialty Media, Lavallette, N.J.) and resuspended in appropriate volume of the bind buffer (50 mM Tris pH 7.5, 5 mM MnCl2, 150 mM NaCl, 0.04 mg/ml bacitracin, 0.004 mg/ml leupeptin, 0.2 mg/ml BSA, 0.01 mM phosphoramidon) such that 200 μl of the cell suspension would give rise to about 10,000 cpm of specific ^125 I-SP binding (approximately 50,000 to 200,000 cells). In the binding assay, 200 μl of cells were added to a tube containing 20 μl of 1.5 to 2.5 nM of ^125 I-SP and 20 μl of unlabeled substance P or any other test compound. The tubes were incubated at 4° C. or at room temperature for 1 hour with gentle shaking. The bound radioactivity was separated from unbound radioactivity by GF/C filter (Brandel, Gaithersburg, Md.) which was pre-wetted with 0.1 polyethylenimine. The filter was washed with 3 ml of wash buffer (50 Tris pH 7.5, 5 mM MnCl21 150 mM NaCl) three times and its radioactivity was determined by gamma counter.
A variety of compounds were tested according to the COS cell procedure. The concentration of compound required to inhibit the binding of substance P to the human neurokinin-1 receptor by 50% was measured.

The test system of assay [3] is SRIF receptor. The experiment in a line: SRIF receptor affinity: displacement of 125I-CGP-23996 from AtT-20 cells. The class given is binding. The method, then:
The affinity of a variety of compounds for the SRIF receptor was determined by studying the displacement of ^125 I-CGP-23996 from AtT-20 cells using the method generally in accordance with Raynor and Reisine, Journal of Pharmacology and Experimental Therapeutics, 1989, 251;2, 510.
On the technique in general: Loss of bound radioactivity is the signal in a displacement assay; it reports binding, not function.

Assay [4] relates to HIV-1 protease.
For assay [5], the system named is β-adrenergic receptor. The experiment in a line: Radioligand displacement from AtT-20 and brain cells, β-adrenergic receptor. The class given is binding. As to conditions: for Binding Inhibition: 125I-CYP (0.1 nM).
The test system of assay [6] is β-adrenergicreceptor. As to conditions: AtT-20 cells; cited from earlier work.
In assay [7] the test system is Opiate Receptor. The experiment in a line: Radioligand displacement from brain cells, opiate receptor. As to conditions: 3H-naloxone (0.5 nM). Type of assay: binding.
Assay [8] concerns Dopamine Receptor. The experiment in a line: Radioligand displacement from brain cells, dopamine receptor. The class given is binding. Conditions: 3H-spiperone (0.1 nM).
Assay [9] has as its system Muscarinic cholingeric. Type of assay: binding. As to conditions: 3H-QNB (0.1 nM).
Setting [10] is: displacement of 125I-CGP-23996, AtT-20 cells.

T1 sequence (P25103 whole entry): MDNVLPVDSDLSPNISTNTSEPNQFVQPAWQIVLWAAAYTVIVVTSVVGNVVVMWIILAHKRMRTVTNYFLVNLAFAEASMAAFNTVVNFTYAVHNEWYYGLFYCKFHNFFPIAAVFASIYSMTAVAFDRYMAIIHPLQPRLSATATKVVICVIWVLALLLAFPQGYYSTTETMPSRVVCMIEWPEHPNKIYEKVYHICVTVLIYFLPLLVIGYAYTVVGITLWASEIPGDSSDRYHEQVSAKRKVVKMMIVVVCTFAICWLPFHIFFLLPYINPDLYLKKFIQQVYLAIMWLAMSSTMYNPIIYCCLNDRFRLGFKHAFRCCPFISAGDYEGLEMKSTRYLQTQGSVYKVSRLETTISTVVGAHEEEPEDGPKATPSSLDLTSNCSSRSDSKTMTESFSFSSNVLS

“2-(1H-indol-3-yl)ethyl-6-O-(5-aminopentyl)-2,4-di-O-deoxy-β-D-glucopyranoside [Compound 2]”: the figures for the IC50 in assay [1], in [2] and in [3] (setting [10]) were about 1000 nM, 180 nM and 1300 nM, respectively.

The compound `C[C@@H](O)[C@@H]1NC(=O)[C@H](Cc2ccccc2)NC(=O)[C@@H](Cc2c[nH]c3ccccc23)NC(=O)[C@@H](CCc2ccccc2)NC(=O)[C@@H]2CCCN2C(=O)[C@H](Cc2ccccc2)NC1=O` [(18g), Cyclo (D-Homo-Phe-D-Trp-Phe-Thr-Phe-Pro)] (cyclo(FP[d(hPhe)][dW]FT)) registered an IC50 in [4] of 161 nM.

As to `C[C@@H](O)[C@@H]1NC(=O)[C@H](Cc2ccccc2)NC(=O)[C@@H](Cc2c[nH]c3ccccc23)NC(=O)[C@H](CC2CCCCC2)NC(=O)[C@@H]2CCCN2C(=O)[C@H](Cc2ccccc2)NC1=O` [(18h), Cyclo (Cha-D-Trp-Phe-Thr-Phe-Pro)] (cyclo([Cha][dW]FTFP)), the IC50 in assay [4] was determined as 700 nM.

Consider `C[C@@H](O)[C@@H]1NC(=O)[C@H](Cc2ccccc2)NC(=O)[C@@H](Cc2c[nH]c3ccccc23)NC(=O)[C@H](Cc2cccc3ccccc23)NC(=O)[C@@H]2CCCN2C(=O)[C@H](Cc2ccccc2)NC1=O` [(18i), Cyclo (Nal-D-Trp-Phe-Thr-Phe-Pro)] (cyclo([1Nal][dW]FTFP)), for which the IC50 in assay [4] is 22 nM.

Turning to `NCCCCCOC[C@H]1O[C@@H](OCCc2c[nH]c3ccccc23)[C@H](OCc2ccccc2)[C@@H](OCc2ccccc2)[C@@H]1OCc1ccccc1` [Compound 1, 2-(1H-Indol-3yl)ethyl-6-O-(5-aminopentyl)-2,3,4-tri-O-benzyl-β-D-glucopyranoside], the “Binding Inhibition” value is reported as about 70% in assay [5] (AtT-20); 45% in assay [5] (Brain); 55% in assay [7]; 82% in assay [8]; 20% in assay [9] (AtT-20); 83% in assay [9] (Brain). Also, the IC50 is about 9500 nM in [1], 120 nM in assay [2] and 9500 nM in [3] (setting [10]). Moreover, the “concentration required for β-adrenergic receptor binding relative to somatostatin receptor” value in [6] is recorded as “five fold higher concentration”.

Turning to `CC(=O)NCCCCCOC[C@H]1O[C@@H](OCCc2cn(S(=O)(=O)c3ccccc3)c3ccccc23)[C@H](OCc2ccccc2)[C@@H](OCc2ccccc2)[C@@H]1OCc1ccccc1` [Compound 7, 2-(1-Phenylsulfonyl-indol-3yl)ethyl-6-O-(5-acetamidopentyl)-2,3,4-tri-O-benzyl-β-D-glucopyranoside], the IC50 in assay [2] came out at 56 nM.

Consider `CO[C@@H]1O[C@H](COCCCCCN)[C@@H](OCc2ccccc2)[C@H](OCc2ccccc2)[C@H]1OCc1ccccc1` [Compound 8, Methyl 6-O-(5-aminopentyl)-2,3,4-tri-O-benzyl-β-D-glucopyranoside], for which the “binding to β-adrenergic receptor” value in assay [5] is on record as “does not bind”. Further, the “Binding Inhibition” value in [5] (AtT-20) is reported as 0%. Further, in [2], the “binding to substance P receptor” value is on record as “is bound by” and the IC50 was found to be 840 nM. In addition, the “binding to SRIF receptor” value in assay [3] is “is bound by”. Moreover, the IC50 in assay [3] (setting [10]) worked out at 40000 nM.

Take `OC[C@@H]1C[C@H](OCc2ccccc2)[C@@H](OCc2ccccc2)[C@H](OCCc2c[nH]c3ccccc23)O1` [Compound 11, 2-Indol-3-yl-ethyl-2,3,-di-O-benzyl-4-deoxy-β-D-glucopyranoside]: the IC50 in assay [2] amounted to 400 nM.

`CO[C@@H]1O[C@H](COCCCCCNC(=O)C(F)(F)F)[C@@H](OCc2ccccc2)[C@H](OCc2ccccc2)[C@H]1OCc1ccccc1` [Compound 13, Methyl 2,3,4-tri-O-benzyl-6-O-(N-trifluoroacetyl-5-aminopentyl)-β-D-glucopyranoside]: the IC50 in [2] was determined as 1000 nM. For the same compound, the “IC50 (affinity for the SRIF receptor)” value in assay [3] (setting [10]) is “does not bind”.

In assay [4], `C[C@@H](O)[C@@H]1NC(=O)[C@H](Cc2ccc(F)cc2)NC(=O)[C@@H](Cc2c[nH]c3ccccc23)NC(=O)[C@H](Cc2cccc3ccccc23)NC(=O)[C@@H]2CCCN2C(=O)[C@H](Cc2ccccc2)NC1=O` [Compound (19), Cyclo (Nal-D-Trp-p-F-Phe-Thr-Phe-Pro)] (cyclo([1Nal][dW][Phe(4-F)]TFP)) came in with an IC50 of 2.8 nM.

Compound `C[C@@H](O)[C@@H]1NC(=O)[C@H](CCCCN)NC(=O)[C@@H](Cc2c[nH]c3ccccc23)NC(=O)[C@H](Cc2ccccc2)NC(=O)[C@@H]2CCCN2C(=O)[C@H](Cc2ccccc2)NC1=O` [L-363,301, reference compound] (cyclo(PF[dW]KTF)) registered an IC50 in assay [3] (setting [10]) of 18.7 nM.

Regarding `CC(C)[C@@H]1NC(=O)[C@H](CCCCN)NC(=O)[C@@H](Cc2c[nH]c3ccccc23)NC(=O)[C@H](Cc2ccc(O)cc2)NC(=O)[C@H](C)N(C)C(=O)[C@H](Cc2ccccc2)NC1=O` [MK 678, reference compound], the IC50 in [3] (setting [10]) was 60 nM.

Consider `C[C@H](N)C(=O)NCC(=O)N[C@H]1CSSC[C@@H](C(=O)O)NC(=O)[C@H](CO)NC(=O)[C@H]([C@@H](C)O)NC(=O)[C@H](Cc2ccccc2)NC(=O)[C@H]([C@@H](C)O)NC(=O)[C@H](CCCCN)NC(=O)[C@H](Cc2c[nH]c3ccccc23)NC(=O)[C@H](Cc2ccccc2)NC(=O)[C@H](Cc2ccccc2)NC(=O)[C@H](CC(N)=O)NC(=O)[C@H](CCCCN)NC1=O` [SRIF, somatostatin, reference compound], for which the values for the IC50 in assay [1] (also printed as 9.3×10^-9 M) and in assay [3] (setting [10]) were about 9.3 nM and 9.3 nM, respectively.
